Where a name gives a salt, the structure may show the parent alone. Marks after values point to notes of the source that are not given here.
What was measured:
[1] = test system: platelet aggregation (ADP); assay: Inhibition of ADP-induced platelet aggregation, guinea pig ex vivo (turbidimetric, PRP); assay type: in vivo; details: p.o.
Description: (§1) These compounds were tested for inhibition of platelet aggregation alone and in combination with certain anti-inflammatory agents, in the guinea pig ex vivo by the following method: • Ten male guinea pigs weighing 250-300 g were orally dosed 1% methyl cellulose (5 ml/kg) in which the compound under test was suspended. Ten control animals were given methyl cellulose alone. […] Platelet-rich- plasma (PRP) was prepared from each blood sample by centrifigation at 450 g to 5 min. The platelet concentration in each sample or PRP was adjusted with auto- logous platelet-poor-plasma to give a count of […] PRP. Aggregation was measured turbido- metrically (G.V.R. Born, 1962, Nature, 194, 927-929) at 39° using a Bryston aggregometer coupled to a penrecorder. The concentration of callogen producing approximately 50% maximal aggregation and the concentration of ADP producing first-phase aggregation were compared in PRP samples from control and drug treated animals.
(§2) In the tables the dose ratio represents the ratio of the concentration of aggregating agent to cause aggregation in PRP from drug-treated animals to the concentration of aggregating agent to cause aggregation in PRP from control animals.

[2] = test system: platelet aggregation (collagen); assay: Inhibition of collagen-induced platelet aggregation, guinea pig ex vivo (turbidimetric, PRP); assay type: in vivo; details: p.o.
Description: as §1, §2

[3] = Table 1, ADP 0.5μM, 2 h, mmol(mg)/kg: Aspirin 0.15 (27), Compound A 0.08 (20), combination 0.15 (27)+0.08 (20)
[4] = Table 1, 2 h, mmol(mg)/kg: Aspirin 0.15 (27), Compound A 0.08 (20), combination 0.15 (27)+0.08 (20)
[5] = Table 1, PRP 2 h after dosing, mmol(mg)/kg: Aspirin 0.15 (27), Compound A 0.08 (20), combination 0.15 (27)+0.08 (20)
[6] = Table 2, ADP 0.5μM, 2 h, mmol(mg)/kg: Aspirin 0.15 (27), Compound B 0.08 (22), combination 0.15 (27)+0.08 (22)
[7] = Table 2, 2 h, mmol(mg)/kg: Aspirin 0.15 (27), Compound B 0.08 (22), combination 0.15 (27)+0.08 (22)
[8] = Table 4, ADP 0.5μM, 2 h, mmol(mg)/kg: Aspirin 0.15 (27), Compound C 0.6 (217), combination 0.15 (27)+0.6 (217)
[9] = Table 4, 2 h, mmol(mg)/kg: Aspirin 0.15 (27), Compound C 0.6 (217), combination 0.15 (27)+0.6 (217)
[10] = Table 5, ADP 0.5µM, 2 h, mmol(mg)/kg: Aspirin 0.15 (27), Compound D 0.08 (31), combination 0.08 (31)+0.15 (27)
[11] = Table 5, 2 h, mmol(mg)/kg: Aspirin 0.15 (27), Compound D 0.08 (31), combination 0.08 (31)+0.15 (27)
[12] = Table 6, ADP 0.5µM, 2 h, mmol(mg)/kg: Aspirin 0.15 (27), Compound D 0.15 (59), Compound D Aspirinate Salt 0.15 (88)
[13] = Table 6, 2 h, mmol(mg)/kg: Aspirin 0.15 (27), Compound D 0.15 (59), Compound D Aspirinate Salt 0.15 (88)
[14] = Table 3, ADP 0.5µM, 2 h, mmol(mg)/kg: Indomethacin 0.003 (1), Compound B 0.08 (22), combination 0.003 (1)+0.08 (22)
[15] = Table 3, 2 h, mmol(mg)/kg: Indomethacin 0.003 (1), Compound B 0.08 (22), combination 0.003 (1)+0.08 (22)

For CC(=O)Oc1ccccc1C(=O)O [Aspirin, aspirin, reference compound], the “% Inhibition of ADP (0.5µM)” value [1, 3] was 16%, the “% Inhibition of ADP 1μM” value [1, 4] was 0% and the “Dose-ratio vs. ADP” value [1, 5] was 1.3. For the same compound, the “% Inhibition of ADP (0.5µM)” value [1, 6] was 0%, the “Dose-ratio vs. ADP” value [1, 7] was 1.3 and the “% Inhibition of ADP (0.5µM)” value [1, 8] was 0%. The “Dose-ratio vs. ADP” value [1, 9] was 1.3, the “% Inhibition of ADP (0.5µM)” value [1, 10] was 0% and the “Dose-ratio vs. ADP” value [1, 11] was 1.3. For the same compound, the “% Inhibition of ADP (0.5µM)” value [1, 12] was 0%, the “Dose-ratio vs. ADP” value [1, 13] was 1.3 and the “Dose-ratio vs. Coll.” value [2, 5] was 2.2*. For the same compound, the “Dose-ratio vs. Coll.” value [2, 7] was 2.2*, the “Dose-ratio vs. Coll.” value [2, 9] was 2.2* and the “Dose-ratio vs. Coll.” value [2, 11] was 2.2*. The “Dose-ratio vs. Coll.” value [2, 13] was 2.2*.
O=c1c2ccccc2sn1CCN1CCCCC1 [Compound A, 2-[2-(1-piperidyl)ethyl] 1,2-benzisothiazol-3-one] was tested, and the “% Inhibition of ADP (0.5µM)” value [1, 3] was 26%, the “% Inhibition of ADP 1μM” value [1, 4] was 0% and the “Dose-ratio vs. ADP” value [1, 5] was 1.4*. The “Dose-ratio vs. Coll.” value [2, 5] was 8.3*.
For O=c1c2ccccc2sn1CCCN1CCCCC1 [Compound B, 2-[3-(1-piperidyl)propyl]-1,2-benzisothiazol-3-one], the “% Inhibition of ADP (0.5µM)” value [1, 6] was 57* %, the “Dose-ratio vs. ADP” value [1, 7] was 1.7* and the “% Inhibition of ADP (0.5µM)” value [1, 14] was 57* %. The “Dose-ratio vs. ADP” value [1, 15] was 1.7*, the “Dose-ratio vs. Coll.” value [2, 7] was 9.0* and the “Dose-ratio vs. Coll.” value [2, 15] was 9.0*.
For COc1cc2sn(CCN3CC4CCC(CC4)C3)c(=O)c2cc1OC [Compound C, 2-[2-(3-azabicyclo[3.2.2]non-3-yl)ethyl)-5,6-dimethoxy-1,2-benzisothiazol-3-one], the “% Inhibition of ADP (0.5µM)” value [1, 8] was 92* %, the “Dose-ratio vs. ADP” value [1, 9] was 3.3* and the “Dose-ratio vs. Coll.” value [2, 9] was >13.9*.
With COc1cc2sn(CCCCN3CC4CCC(CC4)C3)c(=O)c2cc1OC [Compound D Aspirinate Salt, Aspirin salt of 2-(4-(3-azabicyclo[3.2.2.]non-3-yl)butyl)-5,6-dimethoxy-1,2-benzisothiazol-3-one] the “% Inhibition of ADP (0.5µM)” value [1, 12] was 91* %, the “Dose-ratio vs. ADP” value [1, 13] was 4.6* and the “Dose-ratio vs. Coll.” value [2, 13] was >57*.
For COc1cc2sn(CCCCN3CC4CCC(CC4)C3)c(=O)c2cc1OC [Compound D, 2-[4-(3-azabicyclo[3.2.2]non-3-yl)butyl]-5,6-dimethoxy-1,2-benzisothiazol-3-one], the “% Inhibition of ADP (0.5µM)” value [1, 10] was 86* %, the “Dose-ratio vs. ADP” value [1, 11] was 2.6* and the “% Inhibition of ADP (0.5µM)” value [1, 12] was 61* %. For the same compound, the “Dose-ratio vs. ADP” value [1, 13] was 3.2*, the “Dose-ratio vs. Coll.” value [2, 11] was 5.4* and the “Dose-ratio vs. Coll.” value [2, 13] was >15.4*.
In the case of COc1ccc2c(c1)c(CC(=O)O)c(C)n2C(=O)c1ccc(Cl)cc1 [Indo-methacin, Indomethacin, reference compound], the “% Inhibition of ADP (0.5µM)” value [1, 14] is reported as 0%, the “Dose-ratio vs. ADP” value [1, 15] is reported as 1.1 and the “Dose-ratio vs. Coll.” value [2, 15] is reported as 1.7*.

— patent publication EP0001503A1, “Antithrombotic compositions containing benzisothiazolones” (BEECHAM GROUP PLC, priority 1977, dated 1979)
